Common to all, as to format: biochemical
The target in assay [1] is T1, PIP4K 2A (Homo sapiens, UniProt P48426).
T1 sequence (P48426 1-406): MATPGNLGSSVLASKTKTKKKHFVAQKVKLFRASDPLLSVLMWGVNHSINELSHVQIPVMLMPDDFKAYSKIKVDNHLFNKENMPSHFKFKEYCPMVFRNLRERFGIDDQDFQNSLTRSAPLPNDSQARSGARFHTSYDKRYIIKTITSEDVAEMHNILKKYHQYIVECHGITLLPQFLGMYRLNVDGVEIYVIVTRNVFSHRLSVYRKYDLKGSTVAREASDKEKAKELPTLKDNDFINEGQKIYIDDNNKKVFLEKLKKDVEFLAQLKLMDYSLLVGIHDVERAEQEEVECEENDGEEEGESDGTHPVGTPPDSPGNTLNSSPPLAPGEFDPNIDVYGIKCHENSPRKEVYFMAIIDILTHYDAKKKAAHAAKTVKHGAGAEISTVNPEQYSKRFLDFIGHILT
Put plainly: Kinase Assay PIP4K2 A (PIP4KtypeIIA inhibition assay). More on the design: made in house; host or cells: E. coli. Conditions: compounds listed under IC50 bin headings. The source says:
GST tagged PIP4KtypeIIA and B enzymes were overexpressed in E. Coli and purified to >80% homogeneity. Phosphatidyl inositol-5-phosphate (PI5P, Cat. #850152, Avanti Polar Lipids Inc.) was used as the lipid substrate and phosphatidyl ethanolamine (DOPE 18:1, Cat. #850725, Avanti Polar Lipids Inc.) was used as the carrier lipid for assays. Ultrapure ATP and GTP was purchased from Bellbrooke Labs. ADP Glo reagents were obtained from Promega. Transcreener FI reagent was obtained from Bellbrooke labs.
Enzyme preparation: GST-tagged PIP4KtypeIIA (5 uL, 1.43 mg/mL) was diluted (1:10) to 50 uL using HNE buffer. From the 1:10 diluted stock, a 6.4 uL aliquot was diluted further to 5 mL using HNE buffer to yield 5× enzyme stock (2.5 nM).
Lipid Preparation: In a 10 mL pyrex glass vial, 1 ug of PI5P and 1 ug of DOPE were suspended in 2.5 mL of HEPES buffer mix and 2.5 mL of H:E buffer. The contents were mixed and sonicated for 3 min to yield a translucent lipid stock.
Compound Preparation: Compounds were stored as 5 mM stocks in neat DMSO as room temperature in glass vials. 5 mM stocks were diluted to 2 mM and then serially diluted (3×) in neat DMSO in 96 well polypropylene plates. From the serially diluted stocks, 3 uL was delivered into 250 uL of 25% DMSO (in water) to generate 5× compound stocks. Typically, the highest compound conc. was 24 uM.
The assay volume was kept at 25 uL. To each well of the reaction plate, 10 uL of lipid stock (1:1 ratio PI5P:DOPE) was delivered. This was followed by the addition of 5 uL of compound in 25% DMSO. Then, to each well, 5 uL of 2.5 nM (5×) typeIIA enzyme was delivered. The contents were mixed well and incubated for 1 h at 27 C. After 1 h, reaction was initiated by adding 5 uL of 50 uM ATP and the contents were mixed well with a multi-channel pipetteman. The final concentration of the reagents are as follows: 50 mM HEPES, pH 7.3, 10 mM MgCl2, 20 mM NaCl, 0.01% v/v triton-X100, 5% DMSO, 10 uM ATP, 80 uM (2 ug) PI5P, 2 ug DOPE, and 0.5 nM PIP4KIIA. Typically, the highest conc. of compounds was 4.8 uM and the lowest conc. was 0.
After 1 hr, the reaction was quenched by adding 25 uL of ADP Glo reagent. The contents were incubated for 1 hr. Afterwards, 50 uL of kinase detection reagent was delivered. The contents were incubated for another hour. The luminescence was read using Molecular Devices Paradigm plate reader. […] The blanks were averaged and subtracted from all other wells. Using a calibration curve, RLU was converted to uM ADP (product). IC50 was calculated by plotting the residual activity (expressed as % No inhibitor control) vs. log [Inh. conc.]

The target in a further assay is T2, PIP4K2B (Homo sapiens, UniProt P78356).
T2 construct: made in house; host or cells: E. coli
T2 sequence (P78356 1-416): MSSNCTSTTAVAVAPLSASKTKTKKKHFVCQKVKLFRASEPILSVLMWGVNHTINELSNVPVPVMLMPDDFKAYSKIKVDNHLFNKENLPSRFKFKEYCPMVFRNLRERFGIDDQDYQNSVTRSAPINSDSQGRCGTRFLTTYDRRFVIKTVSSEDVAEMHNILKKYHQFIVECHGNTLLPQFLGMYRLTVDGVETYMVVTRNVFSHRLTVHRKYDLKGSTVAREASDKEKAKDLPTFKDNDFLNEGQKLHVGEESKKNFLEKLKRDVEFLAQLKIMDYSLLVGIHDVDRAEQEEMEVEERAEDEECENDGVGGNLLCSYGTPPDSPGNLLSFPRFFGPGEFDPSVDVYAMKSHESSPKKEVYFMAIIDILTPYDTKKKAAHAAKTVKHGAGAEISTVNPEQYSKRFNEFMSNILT
Put plainly: Trans-FI P kinase assay PIP4K2B (PIP4KtypeIIB inhibition assay). The note with it: compounds listed under IC50 bin headings; 100 uM GTP; read-out: Trans-FI P kinase assays: PIP4K2B IC50. In short, it runs like this: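 Transcreener FI fluorescence read-out of GDP formed by E. coli-expressed GST-PIP4K2B (5 nM) using 100 uM GTP and 80 uM PI5P with DOPE carrier lipid, pH 7.3, 2 h reaction. Compounds (up to 4.8 uM) were preincubated with enzyme 1 h at 27 C; IC50 fitted from residual activity relative to no-inhibitor control.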

For assay [2], the target named is T1, PIP4K 2A. The assay is described as follows: ADP-glo kinase assay PIP4K 2A. Conditions: compounds listed under IC50 bin headings. The arrangement: 4 nM PIP4K2A (full length protein, SignalChem); purchased SignalChem. In short, it runs like this:
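Inhibition was calculated versus DMSO controls from ADP-Glo luminescence and fitted to IC50 over a 10-point, threefold series. Compound was first pre-incubated 15 min at room temperature with PIP4K2A (full-length; 4 nM in the enzyme/substrate mix) and PI(5)P diC8 (100 μM in that mix). The reaction then ran for 1 h after adding 60 μM ATP solution, in MOPS pH 7.2/MgCl2/Tween buffer.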

What is called IC50 is the concentration at which inhibition is half-maximal. Turning to `COc1ncc(Nc2cc3c(cn2)-c2ccc(N4CCCC4=O)cc2OC3C)cc1NC(C)=O` (stereo not drawn) [Example 87, N-(2-methoxy-5-((5-methyl-8-(2-oxopyrrolidin-1-yl)-5H-chromeno[4,3-c]pyridin-3-yl)amino)pyridin-3-yl)acetamide], the IC50 on PIP4K 2A [1] is 0.001 to 0.01 µM; at PIP4K2B, 0.01 to 0.1 µM; against PIP4K 2A [2] it was 0.001 to 0.01 µM.

Regarding `CC1Oc2cc(N3CCCC3=O)ccc2-c2cnc(Nc3cnc4c(c3)N(C(=O)CO)CCO4)cc21` (stereo not drawn) [Example 61, 1-(3-((1-(2-hydroxyacetyl)-2,3-dihydro-1H-pyrido[2,3-b][1,4]oxazin-7-yl)amino)-5-methyl-5H-chromeno[4,3-c]pyridin-8-yl)pyrrolidin-2-one], the IC50 is not above 0.001 µM against PIP4K 2A [1], 0.001 to 0.01 µM at PIP4K2B and not above 0.001 µM against PIP4K 2A [2].

For the molecule `CC1Oc2cc(N3CCCC3=O)ccc2-c2cnc(Nc3cnc4c(c3)N(C(=O)C3(O)CC3)CCO4)cc21` (stereo not drawn) [Example 58, 1-(3-((1-(1-hydroxycyclopropane-1-carbonyl)-2,3-dihydro-1H-pyrido[2,3-b][1,4]oxazin-7-yl)amino)-5-methyl-5H-chromeno[4,3-c]pyridin-8-yl)pyrrolidin-2-one], the results for the IC50 at PIP4K 2A [1], on PIP4K2B and against PIP4K 2A [2] were not above 0.001 µM, 0.001 to 0.01 µM and not above 0.001 µM, respectively.

Turning to `CC1Oc2cc(N3CCCC3=O)ccc2-c2cnc(Nc3cnc4c(c3)N3C(=O)CC[C@H]3CO4)cc21` (stereo partly drawn) [Example 40, (6aS)-2-((5-methyl-8-(2-oxopyrrolidin-1-yl)-5H-chromeno[4,3-c]pyridin-3-yl)amino)-6,6a,7,8-tetrahydro-9H-pyrido[2,3-b]pyrrolo[1,2-d][1,4]oxazin-9-one], the IC50 is not above 0.001 µM at PIP4K 2A [1], 0.001 to 0.01 µM on PIP4K2B and not above 0.001 µM against PIP4K 2A [2].

For the molecule `CC1Oc2cc(C(=O)N(C)C)ccc2-c2cnc(Nc3cnc4c(c3)N(C(=O)C3CC3)CCO4)cc21` (stereo not drawn) [Example 68, 3-((1-(cyclopropanecarbonyl)-2,3-dihydro-1H-pyrido[2,3-b][1,4]oxazin-7-yl)amino)-N,N,5-trimethyl-5H-chromeno[4,3-c]pyridine-8-carboxamide], the values for the IC50 on PIP4K 2A [1], on PIP4K2B and on PIP4K 2A [2] were not above 0.001 µM, 0.001 to 0.01 µM and not above 0.001 µM, respectively.

For the molecule `COc1ncc(Nc2cc3c(cn2)-c2ccc(N4CCCC4=O)cc2OC3C)cc1N(C)C(C)=O` (stereo not drawn) [Example 89, N-(2-methoxy-5-((5-methyl-8-(2-oxopyrrolidin-1-yl)-5H-chromeno[4,3-c]pyridin-3-yl)amino)pyridin-3-yl)-N-methylacetamide], the IC50 is 0.1 to 1 µM against PIP4K 2A [1], more than 1 µM on PIP4K2B and 0.1 to 1 µM against PIP4K 2A [2].

`CC1(C)Oc2cc(N3CCCC3=O)ccc2-c2cnc(Nc3cnc4c(c3)OCCO4)cc21` [Example 164, 1-(3-((2,3-dihydro-[1,4]dioxino[2,3-b]pyridin-7-yl)amino)-5,5-dimethyl-5H-chromeno[4,3-c]pyridin-8-yl)pyrrolidin-2-one]: the IC50 against PIP4K 2A [1] is not above 0.001 µM; on PIP4K2B it was 0.01 to 0.1 µM; on PIP4K 2A [2] it was 0.001 to 0.01 µM.

In the case of `CC1Oc2cc(N3CCCC3=O)ccc2-c2cnc(Nc3cnc4c(c3)N(S(C)(=O)=O)CCO4)cc21` (stereo not drawn) [Example 49, 1-(5-methyl-3-((1-(methylsulfonyl)-2,3-dihydro-1H-pyrido[2,3-b][1,4]oxazin-7-yl)amino)-5H-chromeno[4,3-c]pyridin-8-yl)pyrrolidin-2-one], the results for the IC50 against PIP4K 2A [1], at PIP4K2B and on PIP4K 2A [2] were not above 0.001 µM, 0.1 to 1 µM and 0.001 to 0.01 µM, respectively.

As to `CC1Oc2cc(C(=O)N(C)C)ccc2-c2cnc(Nc3cnc4c(c3)N(C(=O)C(C)(C)C)CCO4)cc21` (stereo not drawn) [Example 67, N,N,5-trimethyl-3-((1-pivaloyl-2,3-dihydro-1H-pyrido[2,3-b][1,4]oxazin-7-yl)amino)-5H-chromeno[4,3-c]pyridine-8-carboxamide], the IC50 on PIP4K 2A [1] was not above 0.001 µM; at PIP4K2B, 0.001 to 0.01 µM; on PIP4K 2A [2], not above 0.001 µM.

`O=C1CCCN1c1ccc2c(c1)OC1(CCC1)c1cc(Nc3cnc4c(c3)N3C(=O)CC[C@H]3CO4)ncc1-2` [Example 195, (S)-2-((8-(2-oxopyrrolidin-1-yl)spiro[chromeno[4,3-c]pyridine-5,1′-cyclobutan]-3-yl)amino)-6,6a,7,8-tetrahydro-9H-pyrido[2,3-b]pyrrolo[1,2-d][1,4]oxazin-9-one]: the IC50 against PIP4K 2A [1] is not above 0.001 µM; on PIP4K2B it was 0.001 to 0.01 µM; against PIP4K 2A [2] it was not above 0.001 µM.

`CC1Oc2cc(C(=O)N(C)C)ccc2-c2cnc(Nc3cnc4c(c3)N(S(=O)(=O)C3CC3)CCO4)cc21` (stereo not drawn) [Example 72, 3-((1-(cyclopropylsulfonyl)-2,3-dihydro-1H-pyrido[2,3-b][1,4]oxazin-7-yl)amino)-N,N,5-trimethyl-5H-chromeno[4,3-c]pyridine-8-carboxamide]: the IC50 is not above 0.001 µM at PIP4K 2A [1], 0.001 to 0.01 µM at PIP4K2B and 0.001 to 0.01 µM against PIP4K 2A [2].

As for `CC1Oc2cc(N3CCCC3=O)ccc2-c2cnc(Nc3cncc(Nc4ccccn4)c3)cc21` (stereo not drawn) [Example 130, 1-(5-methyl-3-((5-(pyridin-2-ylamino)pyridin-3-yl)amino)-5H-chromeno[4,3-c]pyridin-8-yl)pyrrolidin-2-one], the IC50 against PIP4K 2A [1] is 0.001 to 0.01 µM; on PIP4K2B it was 0.01 to 0.1 µM; at PIP4K 2A [2] it was 0.001 to 0.01 µM.

As for `CC1Oc2cc(N3CCCC3=O)ccc2-c2cnc(Nc3cccnc3)cc21` (stereo not drawn) [Example 38, 1-(5-methyl-3-(pyridin-3-ylamino)-5H-chromeno[4,3-c]pyridin-8-yl)pyrrolidin-2-one], the 50% inhibitory concentration (IC50) lay in the range of 0.001 to 0.01 µM on PIP4K 2A [1], 0.1 to 1 µM on PIP4K2B and 0.001 to 0.01 µM against PIP4K 2A [2].

With `CC1Oc2cc(N3CCCC3=O)ccc2-c2cnc(Nc3cncnc3)cc21` (stereo not drawn) [Example 80, 1-(5-methyl-3-(pyrimidin-5-ylamino)-5H-chromeno[4,3-c]pyridin-8-yl)pyrrolidin-2-one], the IC50 on PIP4K 2A [1] lay in the range of 0.01 to 0.1 µM; on PIP4K2B it was 0.1 to 1 µM; at PIP4K 2A [2] it was 0.01 to 0.1 µM.
